Source: patent US20180055844A1 (Celgene Corporation, priority 2011, published 2018)
Where “and” joins values, the source holds several entries; their conditions need not be identical. Equal values may be shown once. Entries after “also recorded” stand apart in the source; their conditions may differ. Read-outs that look alike come from different tables or passages of the source.

Assays:
MDA-MB-453 = assay: Solid tumor cell colony formation; assay type: cell-based; settings: Homo sapiens
WSU-DLCL2 xenograft = WSU-DLCL2 xenograft model; assay type: in vivo; settings: combination with Rituxan (2 mg/kg iv qw)
[1] = test system: lipopolysaccharide-stimulated human peripheral blood mononuclear cells (hPBMCs); assay: PBMC cytokine profiling; assay type: cell-based; settings: for IC50: LPS-stimulated hPBMC
Oral pharmacokinetics = assay type: in vivo, SD rat
[2] = test system: megakaryocyte progenitor cells; assay: MK colonies (megakaryocyte progenitor cells); assay type: cell-based
HUVEC [3] = assay: HUVEC migration; assay type: cell-based; settings: Homo sapiens
HepG2 = assay: Invasion of solid tumor cells; assay type: cell-based; settings: Homo sapiens; HepG2 (VEGF), hepatocellular
human umbilical artery = assay: Human umbilical artery angiogenesis assay; assay type: cell-based
HUVEC [4] = assay: HUVEC tube formation; assay type: cell-based, human
SNB-19 = assay: Invasion of solid tumor cells; assay type: cell-based; settings: Homo sapiens; SNB-19 (PDGF), glioblastoma
U87 GB xenograft = U87 GB xenograft model; assay type: in vivo; settings: 3 and 30 mg/kg qd
[5] = Stability in human plasma; assay type: in vitro ADME; settings: read-out: t1/2 in human plasma
T cells = assay: Anti-CD3-stimulated human T cell assay, cytokine production; assay type: cell-based
Experimental: T cells were isolated from buffy coat by negative selection using the RosetteSep® T Cell Enrichment Cocktail. The manufacturer's procedures were followed accordingly. All 96-well plates were pre-coated with 3 μg/ml anti-human CD3 antibody in 100 μl 1×PBS for 4 hours at 37° C. The plates were washed three times with RPMI-1640 Complete Media prior to the T cell assay. T cells were then plated in CD3 pre-coated plates at a density of 2.5×10^5 cells/well in 180 μl RPMI-1640 Complete Media. The cells were treated with 20 μl 10× titrated compounds at 10, 1, 0.1, 0.01, 0.001, 0.0001 and 0.00001 μM. Final DMSO concentrations were 0.25%. The plates were incubated for 48 hours at 37° C., 5% CO2. After 48 hours, the supernatants were harvested and tested by a multi-plex cytometric bead array (CBA) assay for the following cytokines/chemokines: IL-2, IL-3, IL-5, IL-10, IL-13, IL-15, IL-17a, GM-CSF, G-SCF, IFN-γ, TNF-α and RANTES. The CBA plates were analyzed on the Luminex IS100 instrument. […] All 96-well plates were pre-coated with 3 μg/mL anti-human CD3 antibody in 100 μL 1×PBS for 4 hours at 37° C. The plates were washed 3 times with RPMI-1640 Complete Media prior to the T cell assay. The T cells were then plated in anti-CD3-pre-coated plates at a density of 2.5×10^5 cells/well in 180 μL RPMI-1640 Complete Media. The cells were treated with 20 μL 10× titrated Celgene compounds at 10, 1, 0.1, 0.01, 0.001, 0.0001, and 0.00001 μM in duplicate. The final DMSO concentrations were 0.25%. The plates were incubated for 48 hours at 37° C., 5% CO2. After 48 hours, the supernatants were harvested and tested by a multiplex cytometric bead array (CBA) assay for the following cytokines/chemokines: IL-2, IL-3, IL-5, IL-10, IL-13, IL-15, IL-17A, GM-CSF, G-CSF, IFN-γ, TNF-α, and RANTES. The CBA plates were analyzed on the Luminex IS100 instrument.

NFκB p65 and p50 = assay: NFκB activity in DLBCL cells (Active Motif transcription factor assay); assay type: cell-based; settings: 0.1 μM, 1 μM and 10 μM, 2 days
Text: NF-κB activity was examined with Active Motif transcription factor assay using nuclear extracts from cells following treatment.

WSU-DLCL2 = assay: Cell cycle analysis; assay type: cell-based
Experimental: (§1) Cells were treated with DMSO or an amount of a compound provided herein for 48 hours. Propidium iodide staining for cell cycle was performed using CycleTEST PLUS (Becton Dickinson) according to manufacturer's protocol. Following staining, cells were analyzed by a FACSCalibur flow cytometer using ModFit LT software (Becton Dickinson).

DoHH2 = assay: Cell cycle analysis; assay type: cell-based
Experimental: as §1

[6] = plasma, 30 mg/kg, SD rat, 30 mpk po

Question: For Cc1nc2cccc(N)c2c(=O)n1C1CCC(=O)NC1=O (stereo not drawn) [compound of Formula I, 3-(5-amino-2-methyl-4-oxo-4H-quinazolin-3-yl)-piperidine-2,6-dione], which inhibition at 10 µM (MDA-MB-453) is on record?
Answer: Its inhibition at 10 µM is -7%.

Question: What about the “complete regressions (tumor volume<25 mm^3)” value (WSU-DLCL2 xenograft; 3 mg) of the same compound?
Answer: The value was 60%.

Question: And the “complete regressions (tumor volume<25 mm^3)” value (WSU-DLCL2 xenograft; 30 mg)?
Answer: The value was 90%.

Question: And the activity at 0.1 µM ([1]; read-out: IL-10 production, mean percent of control)?
Answer: Its activity at 0.1 µM is 480%.

Question: And the activity at 0.1 µM ([1]; read-out: MCP-1 production, mean percent of control)?
Answer: Its activity at 0.1 µM is 236%.

Question: And the activity at 0.1 µM ([1]; read-out: RANTES production, mean percent of control)?
Answer: The activity at 0.1 µM was 131%.

Question: And the IC50 ([1]; read-out: IL-8 production IC50)?
Answer: Its IC50 is greater than 10 µM.

Question: What about the IC50 ([1]; read-out: MIP-1α production IC50) of the same compound?
Answer: The IC50 was 0.3 µM.

Question: And the IC50 ([1]; read-out: MIP-1β production IC50)?
Answer: The IC50 was greater than 10 µM.

Question: What about the F (Oral pharmacokinetics; SD rat, 30 mpk po) of the same compound?
Answer: Its F is 53%.

Question: What about the AUC (Oral pharmacokinetics; [6]) of the same compound?
Answer: The AUC was 25000 ng·h/mL and 87 µM·h.

Question: What about the Cmax (Oral pharmacokinetics; [6]) of the same compound?
Answer: The Cmax was 4800 ng/mL and 17 µM.

Question: And the half-life (Oral pharmacokinetics; plasma, oral, 30 mpk, SD rat)?
Answer: Its half-life is 2.7 h.

Question: And the clearance (Oral pharmacokinetics; plasma, SD rat, read-out: CLp)?
Answer: Its clearance is 11 mL/min/kg.

Question: What about the “Exposures (AUC(0-t)) versus dose” value (Oral pharmacokinetics; up to 30 mg/kg, CD-IDS rat) of the same compound?
Answer: Its value is “increased in a dose proportional manner”.

Question: What about the “inhibition of megakaryocyte progenitor cells” value ([2]; 10 μM) of the same compound?
Answer: Its value is “did not inhibit”.

Question: And the IC50 ([2]; read-out: Immature MK colonies IC50)?
Answer: The IC50 was greater than 10 µM.

Question: And the IC50 ([2]; read-out: Intermediate MK colonies IC50)?
Answer: The IC50 was greater than 10 µM.

Question: And the inhibition at 1 µM (HUVEC [3]; read-out: inhibition of VEGF-induced migration)?
Answer: Its inhibition at 1 µM is 38%.

Question: What about the inhibition at 1 µM (HUVEC [3]; read-out: inhibition of bFGF-induced migration) of the same compound?
Answer: The inhibition at 1 µM was 28%.

Question: What about the IC50 (HepG2) of the same compound?
Answer: The IC50 was less than 0.001 µM.

Question: What about the IC50 (human umbilical artery; read-out: Human angiogenesis IC50) of the same compound?
Answer: Its IC50 is 0.0094 µM.

Question: What about the IC50 (human umbilical artery; read-out: anti-angiogenic IC50, human umbilical artery assay) of the same compound?
Answer: Its IC50 is 0.0094 µM.

Question: What about the “VEGF and bFGF-induced HUVEC tube formation and migration” value (HUVEC [4]) of the same compound?
Answer: Its value is “weakly inhibited”.

Question: What about the IC50 (SNB-19) of the same compound?
Answer: Its IC50 is 0.16 µM.

Question: What about the U87 tumor growth (U87 GB xenograft) of the same compound?
Answer: Its U87 tumor growth is “significantly inhibited; also recorded: inhibits”.

Question: What about the half-life [5] of the same compound?
Answer: Its half-life is 3.83 h.

Question: What about the IL-5 production increase (T cells; 0.01 μM) of the same compound?
Answer: Its IL-5 production increase is 3 fold.

Question: And the IL-5 production increase (T cells; 0.1 μM)?
Answer: The IL-5 production increase was 4 fold.

Question: And the “production of IL-2, IL-3, IL-5, IL-10, IL-15, GM-CSF, INF-γ, RANTES, and TNF-α” value (T cells; 0.01 to 10 μM)?
Answer: Its value is “enhanced”.

Question: What about the IL-10 production (T cells; 1 and 10 μM) of the same compound?
Answer: The IL-10 production was “inhibited”.

Question: And the EC50 (T cells; Homo sapiens, T-cell, read-out: T cell IL-2 EC50)?
Answer: The EC50 was 0.012 to 0.014 µM.

Question: And the IL-10 production enhancement (T cells; low concentrations (≦0.01 μM))?
Answer: Its IL-10 production enhancement is 2 fold.

Question: What about the “NFκB p65 and p50 activity” value (NFκB p65 and p50) of the same compound?
Answer: Its value is “significantly inhibits”.

Question: And the G1 arrest (WSU-DLCL2)?
Answer: Its G1 arrest is “induced G1 arrest”.

Question: What about the G1 arrest (DoHH2) of the same compound?
Answer: The G1 arrest was “induced G1 arrest”.
